Results from US12344597B2, “Alkoxy-substituted pyridinyl derivatives as LPA1 receptor antagonists and their use in the treatment of fibrosis” (IDORSIA PHARMACEUTICALS LTD, priority 2018, dated 2025).

Molecular target: human LPA1 receptor (Homo sapiens (Human), UniProt Q92633)
Assay: Beta-arrestin recruitment assay to determine IC50 values for human LPAR1
Format: cell-based
Conditions: antagonist mode, Tango EDG2-bla U2OS cells, LPA 18:1 500 nM final
Outline: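 Antagonist IC50 = concentration giving 50% inhibition of maximal LPA response. Read-out is beta-lactamase reporter activity after arrestin-protease recruitment in U2OS cells bearing LPA1-TEV-Gal4-VP16 construct; cells pre-incubated 20 h, 37 °C, 5% CO2.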

Chain of human LPA1 receptor (Q92633 whole entry): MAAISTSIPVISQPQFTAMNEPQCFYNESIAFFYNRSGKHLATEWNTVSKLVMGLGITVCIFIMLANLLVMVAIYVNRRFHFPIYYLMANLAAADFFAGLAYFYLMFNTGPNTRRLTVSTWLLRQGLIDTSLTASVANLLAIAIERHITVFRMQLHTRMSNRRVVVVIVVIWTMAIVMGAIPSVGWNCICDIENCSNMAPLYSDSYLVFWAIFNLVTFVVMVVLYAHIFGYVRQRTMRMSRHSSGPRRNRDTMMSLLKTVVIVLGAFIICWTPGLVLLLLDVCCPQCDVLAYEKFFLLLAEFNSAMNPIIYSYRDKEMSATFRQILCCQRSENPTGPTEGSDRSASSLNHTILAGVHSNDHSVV

Structure (SMILES): CCOC(=O)c1cn[nH]c1S(=O)(=O)N1CC(C(=O)Nc2ccc(C)nc2OC(F)F)(c2ccccc2C(C)C)C1 [Ex 13-24, ethyl 5-((3-((2-(difluoromethoxy)-6-methylpyridin-3-yl)carbamoyl)-3-(2-isopropylphenyl)azetidin-1-yl)sulfonyl)-1H-pyrazole-4-carboxylate]
- IC50: 750 nM

Structure (SMILES): Cc1ccc(NC(=O)C2(c3ccccc3C(C)C)CCN(C(=O)CC(C)(C)C(=O)O)C2)c(OC(F)F)n1 (centres unmarked) [Ex 12-83, 4-(3-((2-(difluoromethoxy)-6-methylpyridin-3-yl)carbamoyl)-3-(2-isopropylphenyl)pyrrolidin-1-yl)-2,2-dimethyl-4-oxobutanoic acid]
- IC50: 24 nM

Structure (SMILES): CCOc1nc(C)ccc1NC(=O)C1(c2ccccc2C(C)C)CN(S(N)(=O)=O)C1 [Ex 15-17, N-(2-ethoxy-6-methylpyridin-3-yl)-3-(2-isopropylphenyl)-1-sulfamoylazetidine-3-carboxamide]
- IC50: 31 nM

Structure (SMILES): Cc1ccc(NC(=O)C2(c3ccccc3C(C)C)CN(S(N)(=O)=O)C2)c(OC(C)C)n1 [Ex 15-18, N-(2-isopropoxy-6-methylpyridin-3-yl)-3-(2-isopropylphenyl)-1-sulfamoylazetidine-3-carboxamide]
- IC50: 7 nM

Structure (SMILES): Cc1ccc(NC(=O)C2(c3ccccc3C(C)C)CN(C(=O)[C@H]3CC[C@@H](C(=O)O)CC3)C2)c(OC(F)F)n1 [Ex 50, (1s,4s)-4-(3-((2-(difluoromethoxy)-6-methylpyridin-3-yl)carbamoyl)-3-(2-isopropylphenyl)azetidine-1-carbonyl)cyclohexane-1-carboxylic acid]
- IC50: 68 nM

Structure (SMILES): C=C(CC(=O)O)C(=O)N1CC(C(=O)Nc2ccc(C)nc2OC(F)F)(c2ccccc2C(C)C)C1 [Ex 12-93, 3-(3-((2-(difluoromethoxy)-6-methylpyridin-3-yl)carbamoyl)-3-(2-isopropylphenyl)azetidine-1-carbonyl)but-3-enoic acid]
- IC50: 7 nM

Structure (SMILES): Cc1ccc(NC(=O)C2(c3ccccc3C(C)C)CCN(S(=O)(=O)CCC(=O)OCc3ccccc3)CC2)c(OC(F)F)n1 [Ex 13-7, benzyl 3-((4-((2-(difluoromethoxy)-6-methylpyridin-3-yl)carbamoyl)-4-(2-isopropylphenyl)piperidin-1-yl)sulfonyl)propanoate]
- IC50: 17 nM

Structure (SMILES): Cc1ccc(NC(=O)C2(c3ccccc3C(C)C)CN(C(=O)CCc3cc(O)no3)C2)c(OC(F)F)n1 [Ex 12-29, N-(2-(difluoromethoxy)-6-methylpyridin-3-yl)-1-(3-(3-hydroxyisoxazol-5-yl)propanoyl)-3-(2-isopropylphenyl)azetidine-3-carboxamide]
- IC50: 32 nM

Structure (SMILES): CCOC(=O)CC(=O)N1CCC(C(=O)Nc2ccc(C)nc2OC(F)F)(c2ccccc2C(C)C)CC1 [Ex 12-65, ethyl-3-(4-((2-(difluoromethoxy)-6-methylpyridin-3-yl)carbamoyl)-4-(2-isopropylphenyl)piperidin-1-yl)-3-oxopropanoate]
- IC50: 3 nM

Structure (SMILES): CC(C)c1ccccc1C1(C(=O)Nc2cc(F)cnc2OC(F)F)CN(C(=O)CC(C)(C)C(=O)O)C1 [Ex 12-87, 4-(3-((2-(difluoromethoxy)-5-fluoropyridin-3-yl)carbamoyl)-3-(2-isopropylphenyl)azetidin-1-yl)-2,2-dimethyl-4-oxobutanoic acid]
- IC50: 41 nM

Structure (SMILES): Cc1ccc(NC(=O)C2(c3ccccc3C(C)C)CN(C#N)C2)c(OC(F)F)n1 [Ex 11-6, 1-cyano-N-(2-(difluoromethoxy)-6-methylpyridin-3-yl)-3-(2-isopropylphenyl)azetidine-3-carboxamide]
- IC50: 11 nM

Structure (SMILES): COc1cc(Cl)cnc1NC(=O)C1(c2ccccc2C(C)C)CN(S(N)(=O)=O)C1 [Ex 81-1, N-(5-chloro-3-methoxypyridin-2-yl)-3-(2-isopropylphenyl)-1-sulfamoylazetidine-3-carboxamide]
- IC50: 15 nM

Structure (SMILES): Cc1ccc(NC(=O)C2(c3ccccc3C(C)C)CN(S(=O)(=O)CCCC(=O)O)C2)c(OC(F)F)n1 [Ex 13-17, 4-((3-((2-(difluoromethoxy)-6-methylpyridin-3-yl)carbamoyl)-3-(2-isopropylphenyl)azetidin-1-yl)sulfonyl)butanoic acid]
- IC50: 7 nM

Structure (SMILES): CC(C)c1cccnc1C1(C(=O)Nc2ncc(Cl)cc2OC(F)F)CNC1 [Ex 77, N-(5-chloro-3-(difluoromethoxy)pyridin-2-yl)-3-(3-isopropylpyridin-2-yl)azetidine-3-carboxamide]
- IC50: 1030 nM

Structure (SMILES): Cc1ccc(NC(=O)C2(c3ccccc3C(C)C)CN(C(=O)Cc3cc(O)n[nH]3)C2)c(OC(F)F)n1 [Ex 12-24, N-(2-(difluoromethoxy)-6-methylpyridin-3-yl)-1-(2-(3-hydroxy-1H-pyrazol-5-yl)acetyl)-3-(2-isopropylphenyl)azetidine-3-carboxamide]
- IC50: 19 nM

Structure (SMILES): Cc1ccc(NC(=O)C2(c3ccccc3C(C)C)CN(c3ccnc(C(=O)O)n3)C2)c(OC(F)F)n1 [Ex 18-11, 4-(3-((2-(difluoromethoxy)-6-methylpyridin-3-yl)carbamoyl)-3-(2-isopropylphenyl)azetidin-1-yl)pyrimidine-2-carboxylic acid]
- IC50: 34 nM

Structure (SMILES): CCOC(=O)CC(C)(C)CN1CC(C(=O)Nc2ccc(C)nc2OC(F)F)(c2ccccc2C(C)C)C1 [Ex 11-32, ethyl 4-(3-((2-(difluoromethoxy)-6-methylpyridin-3-yl)carbamoyl)-3-(2-isopropylphenyl)azetidin-1-yl)-3,3-dimethylbutanoate]
- IC50: 805 nM

Structure (SMILES): Cc1ccc(NC(=O)C2(c3ccccc3C(C)C)CN(S(=O)(=O)CCC(=O)NO)C2)c(OC(F)F)n1 [Ex 13-29, N-(2-(difluoromethoxy)-6-methylpyridin-3-yl)-1-((3-(hydroxyamino)-3-oxopropyl)sulfonyl)-3-(2-isopropylphenyl)azetidine-3-carboxamide]
- IC50: 10 nM

Structure (SMILES): Cc1ccc(NC(=O)C2(c3ccccc3C(C)C)CN(Cc3ccc(C(=O)O)[nH]3)C2)c(OC(F)F)n1 [Ex 11-44, 5-((3-((2-(difluoromethoxy)-6-methylpyridin-3-yl)carbamoyl)-3-(2-isopropylphenyl)azetidin-1-yl)methyl)-1H-pyrrole-2-carboxylic acid]
- IC50: 5 nM

Structure (SMILES): Cc1ccc(NC(=O)C2(c3ccccc3C(C)C)CN(Cc3c[nH]nc3C(=O)O)C2)c(OC(F)F)n1 [Ex 11-38, 4-((3-((2-(difluoromethoxy)-6-methylpyridin-3-yl)carbamoyl)-3-(2-isopropylphenyl)azetidin-1-yl)methyl)-1H-pyrazole-3-carboxylic acid]
- IC50: 270 nM

Structure (SMILES): CC(C)c1ccccc1C1(C(=O)Nc2ncc(Cl)cc2OC(F)F)CN(C(=O)CC(C)(C)C(=O)O)C1 [Ex 79-3, 4-(3-((5-chloro-3-(difluoromethoxy)pyridin-2-yl)carbamoyl)-3-(2-isopropylphenyl)azetidin-1-yl)-2,2-dimethyl-4-oxobutanoic acid]
- IC50: 17 nM

Structure (SMILES): Cc1ccc(NC(=O)C2(c3ccccc3C(C)C)CN(Cc3ncco3)C2)c(OC(F)F)n1 [Ex 11-47, N-(2-(difluoromethoxy)-6-methylpyridin-3-yl)-3-(2-isopropylphenyl)-1-(oxazol-2-ylmethyl)azetidine-3-carboxamide]
- IC50: 41 nM

Structure (SMILES): Cc1ccc(NC(=O)C2(c3ccccc3C(C)C)CN(C(=O)CCOCC(=O)O)C2)c(OC(F)F)n1 [Ex 12-110, 2-(3-(3-((2-(difluoromethoxy)-6-methylpyridin-3-yl)carbamoyl)-3-(2-isopropylphenyl)azetidin-1-yl)-3-oxopropoxy)acetic acid]
- IC50: 66 nM
